This is an account of results in patent US8921426B2, “Cationic bis-urea compounds as effective antimicrobial agents” (International Business Machines Corporation, priority 2012, dated 2014).

In brackets after ≈: the same amount, converted by molar mass. Entries after “also recorded” stand apart in the source; their conditions may differ. Like-named read-outs stand apart in the source and are kept apart here.

Series [1] in a line: Critical micelle concentration (CMC) by intensity of scattered light. The class given is physicochemical. The following applies: cationic bis-urea compounds; stock diluted using DI water. On the procedure: The intensity of scattered light (in kilo counts per second) was recorded as a function of cationic compounds concentration ranging from 0.0 to 250.0 mg/L. A stock polymer solution was prepared with a concentration of 1000.0 mg/L, and diluted using DI water to various concentrations. The intensity of scattered light was plotted against polymer concentration. The CMC value was taken from the intersection of the tangent to the curve at the inflection with the horizontal tangent through the points at low concentrations.

In another series the test system is B. subtilis. As to the kind of experiment: Killing efficiency, spread plate method, B. subtilis. It is filed as cell-based, Bacillus subtilis. The following applies: 18 hour treatment. On the procedure:
(§1) Antimicrobial activities of cationic compounds were also tested through a spread plate method. B. subtilis and C. albicans were treated at half MIC, MIC and 2×MIC concentrations of cationic compounds. At predetermined time (18 hours for B. subtilis and 24 hours for C. albicans and C. neoformans), microbial suspensions were withdrawn, diluted sequentially, and then plated on 1.5% lysogeny broth (LB) agar plates. The plates were incubated for 24 hours at 37° C. (48 hours at room temperature for C. albicans). Microbial colonies were formed and counted. The results are expressed as % kill=(cell count of control−survivor count of samples)/cell count of control×100. The experiments were performed in triplicate and were repeated three times.

The test system of series [2] is primary human dermal fibroblasts. In words: MTT cytotoxicity assay. It is filed as cell-based. The following applies: 24 hours at 37° C. On the procedure:
The cytotoxicity tests of the cationic bis-urea compounds were performed in primary human fibroblasts using MTT assay. The cells were cultured in DMEM supplemented with 10% FBS, 5% penicillin, 2 mM L-glutamine (Sigma) and incubated at 37° C., 5% CO2. The cells were seeded onto 96-well plates at a density of 10,000 cells per well and incubated for one day. Cationic compounds were diluted with the growth medium to give final concentrations of 31.25, 62.5, 125, 250.0, 500.0, 1000.0 and 2500.0 mg/L. The media were replaced with 100 microliters of the pre-prepared samples. The plates were then returned to the incubator and maintained in 5% CO2 at 37° C. for 24 hours. Fresh growth media (100 microliters) containing 10% MTT solution (5 mg/mL) were used to replace the mixture in each well after 24 hours. The plates were then returned to the incubator and maintained in 5% CO2 at 37° C. for a further 4 hours. The growth medium and excess MTT in each well were then removed. DMSO (150 microliters) was then added to each well to dissolve the internalized purple formazan crystals. An aliquot of 100 microliters was taken from each well and transferred to a fresh 96-well plate. Each sample was tested in eight replicates per plate. The plates were then assayed at 550 nm and 690 nm. The absorbance readings of the formazan crystals were taken to be the absorbance at 550 nm minus the absorbance at 690 nm. The results were expressed as a percentage of the absorbance of the blank control.

A short description of series [3]: Zeta potential (Zetasizer). The class given is physicochemical. To be noted: cationic bis-urea compounds, 1000 mg/L; method names PBS pH 7.4 and DI water, table does not say which. On the procedure: The zeta potential of the cationic compounds in phosphate-buffered saline (PBS, pH 7.4) and deionized (DI) water was measured by Zetasizer 3000 HAS (Malvern Instrument Ltd., Malvern, UK) equipped with a He—Ne laser beam at […] (scattering angle: 90°). The concentration of cationic compounds was 1000 mg/L. Each measurement was repeated 5 times. An average value was obtained from the five measurements.

The test system of series [4] is Bacillus subtilis (B. subtilis) (ATCC No. 23857). As to the kind of experiment: MIC, broth microdilution, B. subtilis. The class given is cell-based. To be noted: ATCC23857, TSB, 37° C., 18 hours. On the procedure:
(§2) The minimum inhibitory concentration (MIC) of each of the cationic compounds was measured using a broth microdilution method. The cationic compound were dissolved in DI water at a concentration of 2500 mg/L. The samples were further diluted to 31.25, 62.5, 125, 250.0, 500.0 and 1000.0 mg/L using TSB or YMB. The B. subtilis cells were grown in TSB overnight in an incubator at 37° C. The C. albicans cells were grown in YMB at room temperature. The optical density of the bacterial solution was adjusted to OD600 nm=0.07 to 0.08 by the addition of TSB or YMB. This bacterial solution was further diluted 1000 times. Cationic compound solution (100 microliters) was transferred to each well of 96 well plates (NUNC), followed by the addition of 100 microliters of the bacterial solution. TSB or YMB was used as control. B. subtilis cells were incubated at 37° C. overnight in TSB. C. albicans cells were cultured in YMB at room temperature. C. neoformans were inoculated in MHB broth and grew overnight at 37° C. with shaking at 250 rpm. The optical density readings of bacterial solutions were monitored by measuring OD600nm in predetermined times (0 hours and 18 hours for B. subtilis while 0 hours and 24 hours for C. albicans). The assay was performed in four replicates for each sample and the experiments were repeated at least three times.

For another series, the system named is C. albicans. As to the kind of experiment: Killing efficiency, spread plate method, C. albicans. The following applies: for killing of C. albicans cells: 24 hour treatment. It is filed as cell-based, Candida albicans. On the procedure:
as §1

In series [5] the test system is Candida albicans (C. albicans) (ATCC No. 10231). In words: MIC, broth microdilution, C. albicans. It is filed as cell-based. The following applies: for MIC: Candida albicans, read-out: MIC C. albicans. On the procedure:
as §2

A further series deals with rat red blood cells. In words: Hemolysis of rat red blood cells. It is filed as cell-based. The following applies: one hour at 37° C. On the procedure:
Fresh rat blood cells were washed with PBS three times. 100 microliters of red blood cell suspension in PBS (4% in volume) was introduced to each well of a 96 well-plate and 100 microliters of cationic compound solution was then added to the well. PBS and TRITON X-100 (0.2%) were used as control. The plates were incubated for one hour at 37° C. The 96 well plates were centrifuged at 4000 rpm for 5 minutes. Aliquots (100 microliters) of the supernatant were transferred to a new 96 well plate. Hemoglobin release was measured at 576 nm using a microplate reader (TECAN). The red blood cells in PBS were used as a negative control. Absorbance of wells with red cells lysed with 0.2% TRITON X-100 was taken as 100% hemolysis. Percentage of hemolysis was calculated using the following formula (OD576nm=optical density at 576 nm): Hemolysis (%)=[(OD576nm of the sample−OD576nm of PBS)/(OD576nm of 0.2% TRITON X-100−OD576nm of PBS)×100. The data were expressed as mean and standard deviation of four replicates and the tests were repeated three times.

The subject of series [6] is Cryptococcus neoformans (C. neoformans). As to the kind of experiment: MIC, broth microdilution, C. neoformans. It is filed as cell-based. To be noted: for MIC: Cryptococcus neoformans, read-out: MIC C. neoformans. On the procedure:
as §2

A further series deals with C. neoformans cells. In words: TEM of C. neoformans cells before and after treatment. The class given is cell-based, Cryptococcus neoformans. The following applies: 8 hours, FIG. 7B. On the procedure: The morphology of the C. neoformans before and after treatment with cationic compound CBU2 was observed under a JEM-1230 TEM (JEOL, Japan) using an acceleration voltage of 80 keV. The C. neoformans (1.5 mL) was incubated with 0.5 mL of CBU2 solution for 8 hours. The solution was then centrifuged at 4000 rpm for 10 minutes, and the supernatant removed. The […] was washed with PBS twice and then fixed in formalin solution containing 2.5% glutaraldehyde overnight. The sample was then washed by PBS three times (15 minutes each) and then post fixed with 1% OsO4 in phosphate buffer (pH 7.0) for one hour. The fixed samples were washed in phosphate buffer three times (15 minutes each), followed by dehydration in a graded ethanol series. The samples were incubated with the mixtures of acetone and Spun resin (1:1 in volume) for one hour at room temperature, and then transferred to 1:3 mixture of acetone and Spun resin for 3 hours, and to Spun resin overnight. Ultrathin sections (70-90 nm) were cut using a Reichert-Jung Ultracut E ultramicrotome, and post-stained with uranyl acetate and lead citrate for 15 minutes each prior to TEM observations. Spun resin can be prepared from a kit by combining 3,4 epoxy cyclohexyl methyl 3,4 epoxy cyclohexyl carboxylate (ERL-4221 resin from Polysciences) (10.0 g), nonenylsuccinic anhydride (26.0 g), and dimethylaminoethanol (0.4 g).

Where [7] appears, read: ATCC10231, YMB, room temperature, 24 hours.
Setting [8] is: 24 hours, 1.0 and 2.0 times the MIC (FIG. 4A).
Setting [9] is: up to a concentration of 1000 mg/L.

`C[N+](C)(C)CCCNC(=O)Nc1ccc(CNC(=O)c2ccc(C(=O)NCc3ccc(NC(=O)NCCC[N+](C)(C)C)cc3)cc2)cc1.[I-].[I-]` [CBU1] returned a CMC in series [1] of 170.0 mg/L. The “killing of B. subtilis cells” value in the series with B. subtilis (about 500 mg/L) is 100%. In addition, the “cell viability of primary human fibroblasts” value (shortened to “cell viability”) in [2] (up to a concentration of 250 mg/L) is reported as “About 60%”. In addition, the “Zeta Potential” value in series [3] worked out at 47.0 mV. Besides, the MIC in [4] and in series [5] (setting [7]) was 500 µg/mL in each case. Moreover, the “killing of C. albicans cells” value with C. albicans (about 500 mg/L) is listed as 99%. Further, the “HC50 (concentration that induces 50% hemolysis of rat red blood cells)” value with rat red blood cells is on record as >>2500 mg/L.
In [1], `NCCCCNC(=O)Nc1ccc(CNC(=O)c2ccc(C(=O)NCc3ccc(NC(=O)NCCCCN)cc3)cc2)cc1` [CBU2] displayed a CMC of 20.0 mg/L. In addition, in [6], the “activity against C. neoformans (in words)” value is recorded as “highly active”. For the same molecule, the MIC in series [6] (MHB broth, 37° C.) was found to be 62.5 µg/mL (≈ 104 µM); in series [4], 125 µg/mL (≈ 207 µM); in series [5] (setting [7]) it was 31.2 µg/mL (≈ 51.8 µM). In addition, the “cell membrane morphology after treatment (TEM)” value in the series on C. neoformans cells is “ruptured and show loss of intracellular material”. The “killing of B. subtilis cells” value with B. subtilis (about 125 mg/L) came to 100%. Besides, in series [3], the “Zeta Potential” value was 36.7 mV. The “killing efficiency against C. albicans” value in the series with C. albicans (31.2 mg/L, by 1 hour of incubation (FIG. 5)) came to 100%; with C. albicans (setting [8]) it was 100%. In the series on C. albicans (about 31.2 mg/L), the “killing of C. albicans cells” value is on record as 100%. For the same molecule, the “activity against C. albicans (in words)” value in series [5] is recorded as “highly active; also recorded: more active”. For the same molecule, the “HC50 (concentration that induces 50% hemolysis of rat red blood cells)” value in the series with rat red blood cells was >>1000 mg/L.
As to `C[N+](C)(C)CCCNC(=O)Nc1ccc(NC(=O)c2ccc(C(=O)Nc3ccc(NC(=O)NCCC[N+](C)(C)C)cc3)cc2)cc1.[I-].[I-]` [CBU3], in series [1], the CMC came to 110.0 mg/L. Moreover, the “cell viability” value in series [2] (setting [9]) is “More than 80%”. In series [3], the “Zeta Potential” value stood at 32.8 mV. In addition, the values for the MIC in series [4] and in [5] (setting [7]) were 125 µg/mL and 250 µg/mL, respectively. Besides, in the series on C. albicans (setting [8]), the “killing efficiency against C. albicans” value was determined as 100%. In the series on C. albicans (about 125 mg/L), the “killing of C. albicans cells” value stood at 99.9%. Moreover, the “HC50 (concentration that induces 50% hemolysis of rat red blood cells)” value in the series with rat red blood cells is reported as >>2500 mg/L.
The molecule `NCCNC(=O)Nc1ccc(CNC(=O)c2ccc(C(=O)NCc3ccc(NC(=O)NCCN)cc3)cc2)cc1` [CBU5] returned a CMC in [1] of 100.00 mg/L. Moreover, in [6], the “activity against C. neoformans (in words)” value was “highly active” and the minimum inhibitory concentration (MIC) is 125 µg/mL (≈ 229 µM). Besides, the “cell viability” value in series [2] (setting [9]) was “About 80%”. For the same molecule, in series [3], the “Zeta Potential” value is 32.2 mV. The “activity against C. albicans (in words)” value in series [5] is “highly active; also recorded: more active”. In addition, the MIC in [5] (ATCC10231, 24 h) is 62.5 µg/mL (≈ 114 µM). In addition, in the series with rat red blood cells, the “HC50 (concentration that induces 50% hemolysis of rat red blood cells)” value is given as >>1000 mg/L.
On to `NCCCCCCNC(=O)Nc1ccc(CNC(=O)c2ccc(C(=O)NCc3ccc(NC(=O)NCCCCCCN)cc3)cc2)cc1` [CBU6], for which the CMC in [1] came to 15.0 mg/L. Moreover, in [6], the “activity against C. neoformans (in words)” value was “highly active” and the MIC stood at 62.5 µg/mL (≈ 94.9 µM). In [2] (setting [9]), the “cell viability” value is “About 80%”. For the same molecule, the “Zeta Potential” value in series [3] amounted to 35.3 mV. Further, in series [5], the “activity against C. albicans (in words)” value is “highly active; also recorded: more active”. Besides, the MIC in [5] (ATCC10231, 24 h) turned out to be 31.2 µg/mL (≈ 47.4 µM). In addition, the “HC50 (concentration that induces 50% hemolysis of rat red blood cells)” value in the series on rat red blood cells is recorded as >>1000 mg/L.
Consider `NCc1ccc(CNC(=O)Nc2ccc(CNC(=O)c3ccc(C(=O)NCc4ccc(NC(=O)NCc5ccc(CN)cc5)cc4)cc3)cc2)cc1` [CBU7], for which the CMC in [1] was determined as 12.0 mg/L. Moreover, in series [6], the “activity against C. neoformans (in words)” value is “highly active” and the MIC was determined as 31.2 µg/mL (≈ 44.6 µM). For the same molecule, in series [3], the “Zeta Potential” value turned out to be 45.1 mV. The “activity against C. albicans (in words)” value in series [5] is given as “highly active; also recorded: more active”. The MIC in [5] (ATCC10231, 24 h) came to 31.2 µg/mL (≈ 44.6 µM). In addition, the “HC50 (concentration that induces 50% hemolysis of rat red blood cells)” value in the series on rat red blood cells is on record as >>1000 mg/L.
